Results: US20210353706A1, “INHIBITION OF ENDOGENOUS REVERSE TRANSCRIPTASE AND TARGETING OF CELLS FOR PROPHYLAXIS AND THERAPY OF CANCER AND AGING” (Health Research, Inc., priority 2017, published 2021)

Assays:
LINE1 elements = experiment: LINE1 retrotransposition assay (neo-resistant colonies after reporter plasmid transfection); type: cell-based; details: HeLa cells transfected with reporter plasmid
Protocol: FIG. 2 depicts a work-flow for a LINE1 retrotransposition assay as described in Moran et al. Cell 1996 87(5):917-27 (shown in box to the left).
Retrotransposition assay was performed according to Moran et al. Cell. 1996 87(5):917-27 (scheme shown to the left). HeLa cells were transfected with the reporter plasmid; appearance of neo-resistant colonies is indicative of retrotransposition events. […] It is accordingly expected that other RT inhibitors will have similar utility.

HeLa cells = experiment: Clonogenicity of HeLa cells; type: cell-based; details: indicated concentrations of stavudine
[1] = test system: colorectal cancer cells HCT116; experiment: Acquisition of PALA-resistant colonies (CAD gene amplification); type: cell-based, human; details: for number of PALA resistant colonies: HCT116 grown in presence of indicated non-toxic concentrations of RT inhibitor
Text: Gene amplification can be assessed by measuring the frequency of occurrence of cell variants resistant to N-phosphonoacetyl-L-aspartate (PALA), a small molecule inhibitor of aspartate transcarbamylase of CAD protein essential for UMP biosynthesis. In human cells, PALA resistance is associated almost solely with CAD overexpression due to amplification of the CAD gene. Therefore, this can serve as a quantitative indicator of gene amplification. Usually undetectable in normal cells, gene amplification frequency can be as high as 10-5 in tumor cells. The finding that p53 inactivation and DNA demethylation by decitabine both greatly increase the frequency of gene amplification support the possibility of involvement of retroelements (which are inhibited at the epigenetic level by p53 and DNA methylation) in this process.
Right panel illustrates the data shown in the graph as images of tissue culture plates treated and untreated with RT inhibitors in the presence and in the absence of PALA. Sensitivity of HCT116 cells to RT inhibitors alone were determined using quantitation of adherent cells following 72 hours of incubation in the presence of a range of concentrations of RT inhibitors (curves in the graph with the scale of cell viability shown on the right).

[2] = test system: Th-MYCN transgenic mice (spontaneous neuroblastomas); experiment: Tumor relapse after chemotherapy in mouse spontaneous neuroblastoma model; type: in vivo
Text: In particular, 100% of Th-MYCN transgenic mice (strain 129X1/SvJ-Tg(TH-MYCN)41Waw/Nci) homozygous for MYCN transgene develop spontaneous neuroblastomas in their abdomens around 30 days of age. Mice carrying this transgene show many of the features of the human childhood disease including sensitivity to conventional treatments. Indicated treatments were started at the times of first appearance of palpable tumors.

Cc1cn([C@H]2C=C[C@@H](CO)O2)c(=O)[nH]c1=O [stavudine]
concentrations at which stavudine is effective in inhibiting LINE1 retrotransposition (LINE1 elements): above 5 mM | effect on clonogenicity of HeLa cells (HeLa cells): lack of effect | number of PALA resistant colonies [1]: greatly decreased | number of PALA resistant colonies ([1]; listed as STV): dramatically reduces | frequency of gene amplification in vitro ([1]; tumor cells in vitro): greatly reduced | antitumor effect of stavudine alone ([2]; 1.5 mg/ml in drinking water, no chemotherapy): no detectable antitumor effect | extension of average tumor-free survival ([2]; continuous stavudine 1.5 mg/ml in drinking water with cyclophosphamide and topotecan): nearly two-fold | proportion of disease free animals with no relapses detected within >100 days of observation ([2]; continuous stavudine with cyclophosphamide and topotecan): significantly increased
